Earlier results in patent US20030064123A1, “DHEA supplement for increasing women's libido” (priority 2001, published 2003).

Assays:
[1] = post-menopausal women, oral DHEA 25 mg/day, after six months
[2] = tested on: ventrobasal complex of the thalamus; conditions: rat
[3] = tested on: androgen-deficient female patients; conditions: testosterone injections

## C[C@]12CC[C@H](O)CC1=CC[C@@H]1[C@@H]2CC[C@]2(C)C(=O)CC[C@@H]12 [DHEA, Dihydroepiandosterone]
[1]
  estrogen levels: returned to premenopausal levels
  testosterone levels: returned to premenopausal levels

## N=C(N)NCCC[C@H](N)C(=O)O [L-arginine]
[2]
  excitatory amino acid responses and sonato sensory transmission: enhancement

## C[C@]12CC[C@H]3[C@@H](CCC4=CC(=O)CC[C@@]43C)[C@@H]1CC[C@@H]2O [testosterone]
[3]
  libido and ability to become aroused and achieve a satisfactory orgasm: resolved
